Reference: patent publication EP4248959A1, “PREPARATION FOR REDUCTION OF PATHOLOGICAL IRON OVERLOAD” (Dr. Franz Köhler Chemie GmbH, priority 2022, dated 2023)
Entries after “also recorded” stand apart in the source; their conditions may differ.

Legend:
CHO-K1 cells = assay: In vitro micronucleus assay (cytokinesis-block, OECD 487, GLP) with and without S9 metabolic activation; format: cell-based; conditions: for concentration-related increase in frequency of MN: Chi-square test for trend; for micronucleus frequency / MN formation compared with the concurrent negative control: with and without metabolic activation, Chi-square test with Yates' correction
Text: The in vitro Micronucleus Assay (MNA) is a mutagenic test system for the detection of chemicals that induce the formation of small membrane-bound DNA fragments (micronuclei (MN)) in the cytoplasm of interphase cells. The MNA, used for regulatory purposes measures formation of chromosomal changes following DNA damage induced by the compounds under test, and is used to predict the genotoxic potential of pharmaceuticals, industrial chemicals, food additives and cosmetic ingredients.
MN originate from chromosome fragments or whole chromosomes that are not included in the main daughter nuclei during nuclear division. They reflect chromosome damage and may thus provide a marker of genotoxicity and even early-stage carcinogenesis. The most commonly used method in mammalian cells is the cytokinesis-block micronucleus (CBMN) assay. In the CBMN assay, MN are scored after a single cell division using binucleated cultured cells (accumulated using cytochalasin B) to eliminate the confounding effect of altered cell division kinetics on the MN index.
The formation of MN is a consequence of chromosomal breakage and/or spindle-fiber dysfunction induced by clastogens and/or aneuploidogens.
DMSO controls were run concurrently for each experiment.
Micronucleus frequency was analyzed in at least 2000 binucleate cells per concentration and control.
In order to assess genotoxic potential. […] Statistical analysis of the MN frequency and binucleate cells with MN was performed using the Chi-square test with Yates' correction. To examine the dose-response relationship in frequencies of the micronuclei Chi-square test for trend was performed.

rat = assay: Acute toxicology following intravenous administration of a single dose; format: in vivo
Protocol: 1. Acute toxicology of 2,3-dimethoxy-N-methylbenzhydroxamic acid (XIII) following intra venous administration of a single dose.
In the preliminary phase, 1 male and 1 female rat were dosed at 200 mg/kg and observed for a period of 7 days. […] A further group of 1 male and 1 female animals was dosed at a dose level of 300 mg/kg. […] Recovery occurred approximately 4 hours after dosing.
In the main phase of the study, 1 group of 5 male and 5 female animals was dosed at 300 mg/kg and observed for a period of 14 days. […] Recovery occurred by Day 3.

[1] = both, rat, in vivo, iv, 300 mg/kg
[2] = rat, single i.v. dose of 300 mg/kg body weight

| Structure (SMILES) | concentration-related increase in frequency of MN (CHO-K1 cells) | micronucleus frequency / MN formation compared with the concurrent negative control (CHO-K1 cells) | dose-dependent genetic toxicity (summary) (CHO-K1 cells) | genotoxicity (MNA test result) (CHO-K1 cells; +S9 short, -S9 short and -S9 extended treatment) | recovery (rat; [1]) [days] | recovery after dosing (rat; [1]) | mortality (rat; main phase, 5 male and 5 female rats, 300 mg/kg i.v. single dose, observed 14 days) | mortality (rat; preliminary phase, 1 male and 1 female rat, 200 mg/kg i.v. single dose, observed 7 days) | necropsy examination (rat; rat, in vivo) | clinical signs (rat; rat, in vivo, iv, 200 mg/kg) | tolerability of dose level (rat; [2]) | toxic effect (overall conclusion) (rat; [2]) |
| --- | --- | --- | --- | --- | --- | --- | --- | --- | --- | --- | --- | --- |
| O=P1(N(CCCl)CCCl)NCCCO1 (centres unmarked) [CP, cyclophosphamide, reference compound] | increased | significantly induced |  |  |  |  |  |  |  |  |  |  |
| COc1ccc(C(=O)N(C)O)cc1OC [LK 614, 3,4-dimethoxy-N-methylbenzhydroxamic acid] | not observed; also recorded: no dose-related increase | did not exhibit statistically significant increase; also recorded: None of tested concentrations of test item, LK 614, exhibits a statistically significant increase | did not produce dose-dependent genetic toxicity | no genotoxicity |  |  |  |  |  |  |  |  |
| COc1cccc(C(=O)N(C)O)c1OC [XIII, 2,3-dimethoxy-N-methylbenzhydroxamic acid] |  |  |  |  | ≤ 3 | approximately 4 hours | No mortality occurred | No mortality | No abnormalities | no clinical signs | reasonably tolerated | slight toxic effect |
